Data taken from patent US12077503B2, “Substituted cyclic amides and their use as herbicides” (FMC CORPORATION, priority 2015, dated 2024).

Experiments:
Format in all cases: in vivo
[1] = test system: barnyardgrass (Echinochloa crus-galli); test: Test B flooded paddy test; details: Echinochloa crus-galli, 360 h, Flood, 250 g ai/ha; visually evaluated after 13 to 15 d; read-out: Plant response rating, Barnyardgrass (0 to 100 scale where 0 is no effect and 100 is complete control)
Procedure, shortened: (§1)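 Greenhouse paddy pots with 2-leaf stage plants received compound by direct addition to floodwater 3 cm deep, kept at that level. Scored visually at 13–15 d versus controls (0 no effect; 100 complete control).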

[2] = test system: ducksalad (Heteranthera limosa); test: Test B flooded paddy test; details: Heteranthera limosa, 360 h, Flood, 250 g ai/ha; visually evaluated after 13 to 15 d; read-out: Plant response rating, Ducksalad (0 to 100 scale where 0 is no effect and 100 is complete control)
Procedure, shortened: as §1

rice (Oryra sativa) = test: Test B flooded paddy test; details: Oryza sativa, 360 h, Flood, 250 g ai/ha; visually evaluated after 13 to 15 d; read-out: Plant response rating, Rice (0 to 100 scale where 0 is no effect and 100 is complete control)
Procedure, shortened: as §1

[3] = test system: sedge, umbrella (small-flower umbrella sedge, Cyperus difformis); test: Test B flooded paddy test; details: Cyperus difformis, 360 h, Flood, 250 g ai/ha; visually evaluated after 13 to 15 d; read-out: Plant response rating, Sedge, Umbrella (0 to 100 scale where 0 is no effect and 100 is complete control)
Procedure, shortened: as §1

[4] = test system: barnyardgrass (Echinochloa crus-galli); test: Test A preemergence; details: Echinochloa crus-galli, pre-emergence, 240 h, Preemergence
Procedure, shortened: (§2)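 Seeds sprayed preemergence with a directed soil spray, or plants at 2 to 10 cm height and one- to two-leaf stage sprayed postemergence, with test chemicals in a non-phytotoxic solvent mixture containing surfactant, in loam soil–sand blend. Injury rated visually against untreated controls after about 10 d in greenhouse, 0 (no effect) to 100 (complete control).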

[5] = test system: giant foxtail (Setaria faberii); test: Test A preemergence; details: Setaria faberi, pre-emergence, 240 h, Preemergence
Procedure, shortened: as §2

[6] = test system: ryegrass, Italian (Italian ryegrass, Lolium multiflorum); test: Test A preemergence; details: Lolium multiflorum, pre-emergence, 240 h, Preemergence
Procedure, shortened: as §2

Kochia (Kochia scoparia) [7] = test: Test A preemergence; details: Bassia scoparia, pre-emergence, 240 h, Preemergence
Procedure, shortened: as §2

[8] = test system: pigweed (Amaranthus retroflexus); test: Test A preemergence; details: Amaranthus retroflexus, pre-emergence, 240 h, Preemergence
[9] = test system: ragweed (common ragweed, Ambrosia elatior); test: Test A preemergence; details: Ambrosia artemisiifolia, pre-emergence, 240 h, Preemergence
Procedure, shortened: as §2

[10] = test system: barnyardgrass (Echinochloa crus-galli); test: Test A postemergence; details: Echinochloa crus-galli, post-emergence, 240 h, Postemergence
Procedure, shortened: as §2

[11] = test system: blackgrass (Alopecurus myosuroides); test: Test A postemergence; details: Alopecurus myosuroides, post-emergence, 240 h, Postemergence
Procedure, shortened: as §2

[12] = test system: Galium (catchweed bedstraw, Galium aparine); test: Test A postemergence; details: Galium, post-emergence, 240 h, Postemergence
Procedure, shortened: as §2

[13] = test system: giant foxtail (Setaria faberii); test: Test A postemergence; details: Setaria faberi, post-emergence, 240 h, Postemergence
Procedure, shortened: as §2

[14] = test system: ryegrass, Italian (Italian ryegrass, Lolium multiflorum); test: Test A postemergence; details: Lolium multiflorum, post-emergence, 240 h, Postemergence
Procedure, shortened: as §2

[15] = test system: wheat (Triticum aestivum); test: Test A postemergence; details: Triticum aestivum, post-emergence, 240 h, Postemergence
Procedure, shortened: as §2

corn (Zea mays) = test: Test A postemergence; details: Zea mays, post-emergence, 240 h, Postemergence
Procedure, shortened: as §2

Kochia (Kochia scoparia) [16] = test: Test A postemergence; details: Bassia scoparia, post-emergence, 240 h, Postemergence
Procedure, shortened: as §2

[17] = test system: pigweed (Amaranthus retroflexus); test: Test A postemergence; details: Amaranthus retroflexus, post-emergence, 240 h, Postemergence
Procedure, shortened: as §2

[18] = test system: ragweed (common ragweed, Ambrosia elatior); test: Test A postemergence; details: Ambrosia artemisiifolia, post-emergence, 240 h, Postemergence
Procedure, shortened: as §2

## CN1C[C@H](c2cccc(C(F)(F)F)c2)[C@@H](C(=O)Nc2cccnc2F)C1=O [Compound 1397]
[1]
  pest or weed control at 250 g/ha: 75%
[2]
  pest or weed control at 250 g/ha: 100%
Rice (Oryra sativa)
  pest or weed control at 250 g/ha: 0%
[3]
  pest or weed control at 250 g/ha: 0%
[4]; 31 g ai/ha, 0 to 100 scale where 0 is no effect and 100 is complete control, read-out: Barnyardgrass plant response rating
  pest or weed control at 31 g/ha: 100%
[4]; 125 g ai/ha, 0 to 100 scale (0 no effect, 100 complete control), read-out: Plant response rating, Barnyardgrass
  pest or weed control at 125 g/ha: 100%
[5]; 31 g ai/ha, 0 to 100 scale where 0 is no effect and 100 is complete control, read-out: Foxtail, Giant plant response rating
  pest or weed control at 31 g/ha: 100%
[5]; 125 g ai/ha, 0 to 100 scale (0 no effect, 100 complete control), read-out: Plant response rating, Foxtail, Giant
  pest or weed control at 125 g/ha: 100%
[6]; 31 g ai/ha, 0 to 100 scale where 0 is no effect and 100 is complete control, read-out: Ryegrass, Italian plant response rating
  pest or weed control at 31 g/ha: 50%
[6]; 125 g ai/ha, 0 to 100 scale (0 no effect, 100 complete control), read-out: Plant response rating, Ryegrass, Italian
  pest or weed control at 125 g/ha: 70%
Kochia (Kochia scoparia) [7]; 31 g ai/ha, 0 to 100 scale where 0 is no effect and 100 is complete control, read-out: Kochia plant response rating
  pest or weed control at 31 g/ha: 0%
Kochia (Kochia scoparia) [7]; 125 g ai/ha, 0 to 100 scale (0 no effect, 100 complete control), read-out: Plant response rating, Kochia
  pest or weed control at 125 g/ha: 60%
[8]; 31 g ai/ha, 0 to 100 scale where 0 is no effect and 100 is complete control, read-out: Pigweed plant response rating
  pest or weed control at 31 g/ha: 0%
[8]; 125 g ai/ha, 0 to 100 scale (0 no effect, 100 complete control), read-out: Plant response rating, Pigweed
  pest or weed control at 125 g/ha: 0%
[9]; 31 g ai/ha, 0 to 100 scale where 0 is no effect and 100 is complete control, read-out: Ragweed plant response rating
  pest or weed control at 31 g/ha: 0%
[9]; 125 g ai/ha, 0 to 100 scale (0 no effect, 100 complete control), read-out: Plant response rating, Ragweed
  pest or weed control at 125 g/ha: 0%
[10]; 31 g ai/ha, 0 is no effect, 100 is complete control, read-out: Barnyardgrass plant response rating (0 to 100 scale)
  pest or weed control at 31 g/ha: 90%
[10]; 125 g ai/ha, visual injury after approx. 10 d, 0 to 100 scale, 0 no effect, 100 complete control, read-out: Plant response rating, Barnyardgrass
  pest or weed control at 125 g/ha: 90%
[11]; 31 g ai/ha, 0 is no effect, 100 is complete control, read-out: Blackgrass plant response rating (0 to 100 scale)
  pest or weed control at 31 g/ha: 40%
[11]; 125 g ai/ha, visual injury after approx. 10 d, 0 to 100 scale, 0 no effect, 100 complete control, read-out: Plant response rating, Blackgrass
  pest or weed control at 125 g/ha: 70%
[12]; 31 g ai/ha, 0 is no effect, 100 is complete control, read-out: Galium plant response rating (0 to 100 scale)
  pest or weed control at 31 g/ha: 20%
[12]; 125 g ai/ha, visual injury after approx. 10 d, 0 to 100 scale, 0 no effect, 100 complete control, read-out: Plant response rating, Galium
  pest or weed control at 125 g/ha: 60%
[13]; 31 g ai/ha, 0 is no effect, 100 is complete control, read-out: Foxtail, Giant plant response rating (0 to 100 scale)
  pest or weed control at 31 g/ha: 80%
[13]; 125 g ai/ha, visual injury after approx. 10 d, 0 to 100 scale, 0 no effect, 100 complete control, read-out: Plant response rating, Foxtail, Giant
  pest or weed control at 125 g/ha: 90%
[14]; 31 g ai/ha, 0 is no effect, 100 is complete control, read-out: Ryegrass, Italian plant response rating (0 to 100 scale)
  pest or weed control at 31 g/ha: 50%
[14]; 125 g ai/ha, visual injury after approx. 10 d, 0 to 100 scale, 0 no effect, 100 complete control, read-out: Plant response rating, Ryegrass, Italian
  pest or weed control at 125 g/ha: 40%
[15]; 31 g ai/ha, 0 is no effect, 100 is complete control, read-out: Wheat plant response rating (0 to 100 scale)
  plant injury at 31 g/ha: 40%
[15]; 125 g ai/ha, visual injury after approx. 10 d, 0 to 100 scale, 0 no effect, 100 complete control, read-out: Plant response rating, Wheat
  plant injury at 125 g/ha: 70%
Corn (Zea mays); 31 g ai/ha, 0 is no effect, 100 is complete control, read-out: Corn plant response rating (0 to 100 scale)
  plant injury at 31 g/ha: 50%
Corn (Zea mays); 125 g ai/ha, visual injury after approx. 10 d, 0 to 100 scale, 0 no effect, 100 complete control
  Corn plant response rating (crop injury, 0 = no effect, 100 = complete kill) at 125 g/ha: 90%
Kochia (Kochia scoparia) [16]; 31 g ai/ha, 0 is no effect, 100 is complete control, read-out: Kochia plant response rating (0 to 100 scale)
  pest or weed control at 31 g/ha: 0%
Kochia (Kochia scoparia) [16]; 125 g ai/ha, visual injury after approx. 10 d, 0 to 100 scale, 0 no effect, 100 complete control, read-out: Plant response rating, Kochia
  pest or weed control at 125 g/ha: 0%
[17]; 31 g ai/ha, 0 is no effect, 100 is complete control, read-out: Pigweed plant response rating (0 to 100 scale)
  pest or weed control at 31 g/ha: 0%
[17]; 125 g ai/ha, visual injury after approx. 10 d, 0 to 100 scale, 0 no effect, 100 complete control, read-out: Plant response rating, Pigweed
  pest or weed control at 125 g/ha: 0%
[18]; 31 g ai/ha, 0 is no effect, 100 is complete control, read-out: Ragweed plant response rating (0 to 100 scale)
  pest or weed control at 31 g/ha: 0%
[18]; 125 g ai/ha, visual injury after approx. 10 d, 0 to 100 scale, 0 no effect, 100 complete control, read-out: Plant response rating, Ragweed
  pest or weed control at 125 g/ha: 0%
